Experimental data taken from article PMC7395068, “The evolution of strategies to minimise the risk of human drug-induced liver injury (DILI) in drug discovery and development” (Archives of Toxicology, 2020).
Where two headings read alike, the source gives them in different places.

How the values were obtained:
[1] = Plasma free fraction (fu) and unbound Cmax (Cmax,u); format: in vitro ADME, human
Procedure: The prediction of DILI severity was evaluated further using the 3D combined HCI assays using plasma-free fraction. The majority of fu values were obtained from literature, when unavailable in-house prediction was utilised. Unbound plasma Cmax concentrations (Cmax,u) were derived by multiplying total plasma Cmax with the corresponding free fraction (fu) for each compound.

hLiMTs [2] = test system: hLiMTs
HepaRG spheroids [3] = test system: HepaRG spheroids
[4] = cited from earlier work
HepG2 cells [5] = settings: cited from earlier work
HepG2 cells [6] = settings: cited from earlier work; remark: listed apart in the source
human hepatocytes = settings: cited from earlier work
PHH = settings: cited from earlier work
hLiMTs [7] = settings: cited from earlier work
PHH spheroids = settings: cited from earlier work
[8] = cited from earlier work; remark: listed apart in the source
[9] = plasma free fraction; cited from earlier work
[10] = cited from earlier work; remark: listed apart in the source
[11] = test system: THLE-Null and THLE-3A4 cells; settings: In vitro Assay; ref Gustafsson 2014; cited from earlier work
rBsep = settings: In vitro Assay; ref Dawson 2012; cited from earlier work
hLiMTs [12] = experiment: Combined HCI (HCS) and cellular ATP 3D assay in hLiMTs; settings: for AC50 / minimal effective concentration: Homo sapiens
HepaRG spheroids [13] = experiment: Combined HCI (HCS) and cellular ATP 3D assay in HepaRG spheroids; settings: HepaRG; for AC50 / minimal effective concentration: Homo sapiens
[14] = In vitro Assay, ref Persson 2013
[15] = In vitro Assay, ref Proctor 2017

CCOC(=O)c1ncn2c1CN(C)C(=O)c1cc(F)ccc1-2 [flumazenil, reference compound]
Human plasma Cmax,u ([1]; unbound plasma Cmax): 0.650 µM
DILI prediction hLiMTs (HCS-MEC) (hLiMTs [2]): -VE
DILI prediction HepaRG spheroids (HCS-MEC) (HepaRG spheroids [3]): -VE
DILI severity category (Chen et al. [2016]) ([4]; LTKB DILIrank category, ref Chen et al. 2016): No
DILI severity category (Chen 2016) ([4]; human DILI classification, LTKB DILIrank, ref Chen et al. 2016): No
DILI severity category ([4]; human DILI severity, ref Chen et al.): No
DILI +VE (5-8), DILI -VE (-4) ([4]; ref Chen 2016): -VE
DILI severity category ([4]; ref Chen 2016): vNo-DILI-Concern
Structural based (HCI) (HepG2 cells [5]; In vitro Assay, ref O'Brien 2006): -VE
DILI in vitro assay prediction, O'Brien (2006) (HepG2 cells [5]; Structural based (HCI), HepG2, ref O'Brien et al. 2006): -VE
Cluser analysis (HepG2 cells [6]; [14]): -VE
Structural based (HCI) (HepG2 cells [6]; [14]): -VE
DILI in vitro assay prediction, Persson (2013) (HepG2 cells [6]; Structural based (HCI), HepG2, ref Persson et al. 2013): -VE
Structural based (HCI) (human hepatocytes; In vitro Assay, ref Xu 2008): -VE
DILI in vitro assay prediction, Xu (2008) (human hepatocytes; Structural based (HCI), human hepatocytes, ref Xu et al. 2008): -VE
PHH/100uM, Proctor (2017) (PHH; 2D PHH, ATP, IC50 threshold 100 µM, ref Proctor et al. 2017): -VE
PHH ATP <100uM (PHH; [15]): -VE
hLiMTs ATP <100uM (hLiMTs [7]; [15]): -VE
hLiMTs/100uM, Proctor (2017) (hLiMTs [7]; hLiMTs, ATP, IC50 threshold 100 µM, ref Proctor et al. 2017): -VE
hLiMTs ATP <20 x Cmax (PHH spheroids; In vitro Assay, ref Vorrink 2018): -VE
DILI in vitro assay prediction, Vorrink (2018) (PHH spheroids; PHH spheroids, ATP, 14 days, IC20 < 20 × Cmax.tot, ref Vorrink et al. 2018): -VE
Cmax ([8]; read-out: Human plasma Cmax, total plasma Cmax.tot, median of 9 literature references): 1.12 µM
fu [9]: 0.580
Assigned DILI category ([10]; Chen et al. 2016 or literature alignment, ref Chen et al. 2016): 1
In vivo DILI ([10]; ref Dawson 2012): -VE
In vivo DILI ([10]; ref Gustafsson 2014): -VE
In vivo DILI ([10]; ref O'Brien 2006): -VE
In vivo DILI ([10]; ref Persson 2013): -VE
In vivo DILI ([10]; ref Proctor 2017): -VE
In vivo DILI ([10]; ref Vorrink 2018): -VE
In vivo DILI ([10]; ref Williams 2019): -VE
In vivo DILI ([10]; ref Xu 2008): -VE
THLE-Null [11]: -VE
Inhibition of rBsep cutoff<1& cmax u>.2 (rBsep): -VE
Inhibition of rBsep cutoff<3 (rBsep): -VE
hLiMTs <25x Avg Cmax ATP (hLiMTs [12]; hLiMTs, ATP endpoint, cut-off <25x Avg Cmax): -ve
hLiMTs <25x Avg Cmax HCS (hLiMTs [12]; hLiMTs, HCS endpoints, cut-off <25x Avg Cmax): -ve
hLiMTs <25x Avg Cmax All (hLiMTs [12]; hLiMTs, all endpoints (ATP and HCS), cut-off <25x Avg Cmax): -ve
hLiMTs Cmax max All (hLiMTs [12]; hLiMTs, all endpoints, Cmax max used): -ve
hLiMTs Cmax min All (hLiMTs [12]; hLiMTs, all endpoints, Cmax min used): -ve
hLiMTs <10 uM All (hLiMTs [12]; hLiMTs, all endpoints, cut-off <10 uM): -ve
HepaRG <25x Avg Cmax ATP (HepaRG spheroids [13]; ATP endpoint, cut-off <25x Avg Cmax): -ve
HepaRG <25x Avg Cmax HCS (HepaRG spheroids [13]; HCS endpoints, cut-off <25x Avg Cmax): -ve
HepaRG <25x Avg Cmax All (HepaRG spheroids [13]; all endpoints (ATP and HCS), cut-off <25x Avg Cmax): -ve
HepaRG Cmax max All (HepaRG spheroids [13]; all endpoints, Cmax max used): -ve
HepaRG Cmax min All (HepaRG spheroids [13]; all endpoints, Cmax min used): -ve
HepaRG <10 uM All (HepaRG spheroids [13]; all endpoints, cut-off <10 uM): -ve

CO[C@@]12[C@H](COC(N)=O)C3=C(C(=O)C(C)=C(N)C3=O)N1C[C@@H]1N[C@@H]12 [mitomycin C]
Human plasma Cmax,u ([1]; human): 5.396 µM
hLiMTs <10 uM All (hLiMTs [2]): +ve (key: +ve: <10 uM)
hLiMTs <100x Avg Cmaxu ATP (hLiMTs [2]; human): +ve (key: +ve: <100x Avg Cmaxu)
hLiMTs <100x Avg Cmaxu All (hLiMTs [2]; human): +ve (key: +ve: <100x Avg Cmaxu)
hLiMTs <100x Avg Cmaxu HCS (hLiMTs [2]; human): +ve (key: +ve: <100x Avg Cmaxu)
hLiMTs Cmax max All (hLiMTs [2]; human): +ve
hLiMTs Cmax min All (hLiMTs [2]; human): +ve
HepaRG <10 uM All (HepaRG spheroids [3]): +ve (key: +ve: <10 uM)
HepaRG <100x Avg Cmaxu ATP (HepaRG spheroids [3]; human): +ve (key: +ve: <100x Avg Cmaxu)
HepaRG <100x Avg Cmaxu All (HepaRG spheroids [3]; human): +ve (key: +ve: <100x Avg Cmaxu)
HepaRG <100x Avg Cmaxu HCS (HepaRG spheroids [3]; human): +ve (key: +ve: <100x Avg Cmaxu)
HepaRG Cmax max All (HepaRG spheroids [3]; human): +ve
HepaRG Cmax min All (HepaRG spheroids [3]; human): +ve
PHH/100uM, Proctor (2017) (PHH): +VE (key: +VE: IC50 threshold of 100 µM)
hLiMTs/100uM, Proctor (2017) (hLiMTs [7]): +VE (key: +VE: IC50 threshold of 100 µM)
Cmax ([8]; human, in vivo): 7.1 µM
AC50 (hLiMTs [12]; read-out: ATP endpoint AC50): 929 nM
minimal effective concentration (hLiMTs [12]; read-out: ATP endpoint MEC): 0.454 µM
AC50 (hLiMTs [12]; read-out: HCS endpoint AC50): 1090 nM
minimal effective concentration (hLiMTs [12]; read-out: HCS endpoint MEC): 0.399 µM
AC50 (HepaRG spheroids [13]; read-out: ATP endpoint AC50): 400 nM
minimal effective concentration (HepaRG spheroids [13]; read-out: ATP endpoint MEC): 0.4 µM
AC50 (HepaRG spheroids [13]; read-out: HCS endpoint AC50): 400 nM
minimal effective concentration (HepaRG spheroids [13]; read-out: HCS endpoint MEC): 0.4 µM
